In patent US9399646B2 (Genentech, Inc., priority 2010, dated 2016):

Key:
ER-α in MCF-7 cells = biological target: T1, ER-α in MCF-7 cells (Homo sapiens, UniProt P03372); experiment: Breast cancer cell ER-α in cell western assay (SP1); type: cell-based; parameters: endogenous in cells; host or cells: MCF-7; conditions: 4 or 24 hr post compound addition; for Emax: MCF7, SP1 antibody, read-out: ER-α In Cell Western Assay (SP1) Max Response; for DC50: SP1 antibody, read-out: ER-α In Cell Western Assay (SP1) IC50
T1 sequence (P03372 1-595): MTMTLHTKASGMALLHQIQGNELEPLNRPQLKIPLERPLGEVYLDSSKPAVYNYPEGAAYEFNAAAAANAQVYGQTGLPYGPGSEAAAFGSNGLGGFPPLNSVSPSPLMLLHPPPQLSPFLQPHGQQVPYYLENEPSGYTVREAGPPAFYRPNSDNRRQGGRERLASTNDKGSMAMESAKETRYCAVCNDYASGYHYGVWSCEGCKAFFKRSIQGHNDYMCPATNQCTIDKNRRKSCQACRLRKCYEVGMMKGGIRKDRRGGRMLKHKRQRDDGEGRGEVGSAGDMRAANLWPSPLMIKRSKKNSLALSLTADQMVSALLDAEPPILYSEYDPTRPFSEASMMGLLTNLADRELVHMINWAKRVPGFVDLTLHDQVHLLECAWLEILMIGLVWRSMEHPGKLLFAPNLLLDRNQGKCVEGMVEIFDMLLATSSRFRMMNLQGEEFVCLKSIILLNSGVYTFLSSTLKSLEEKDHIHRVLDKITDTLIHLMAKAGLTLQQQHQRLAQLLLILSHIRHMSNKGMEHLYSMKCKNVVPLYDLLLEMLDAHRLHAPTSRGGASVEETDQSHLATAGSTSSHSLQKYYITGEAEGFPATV
Experimental: MCF-7 cells were adjusted to a concentration of 200,000 cells per mL in RPMI containing 10% charcoal-stripped FBS and 20 mM HEPES. 16 microliters of the cell suspension (3200 cells) was added to each well of a poly-D-lysine 384 well plate, and the cells were incubated overnight to allow the cells to adhere. The following day an eleven point, serial semilog dilution of each compound was added to the cells in 16 μL at a final concentration ranging from 0.3-0.000003 μM. At 4 or 24 hr post compound addition, the cells were fixed (10% formalin in PBS) for 20 minutes. Cells were permeablized in PBS 0.1% Triton and blocked with LICOR blocking buffer (50 μl/well, 90°). The wells were then incubated overnight at 4° C. with SP1 rabbit monoclonal Ab (Thermo Scientific) diluted 1:1000 in LICOR blocking buffer/0.1% Tween-20. Wells which were treated with blocking buffer with Tween but no antibody were used as a background control. Wells were washed with 0.1% Tween-20/PBS and then incubated in goat anti-rabbit IRDye™ 800CW (LICOR Inc.; 1:1000) and DRAQ5 DNA dye (1:2000 for 2 mM stock) diluted in LICOR blocking buffer containing 0.1% Tween-20 and 0.01% SDS for 60 minutes. Cells were washed (50 μl/well, 5′ each) in 0.1% Tween-20/PBS. Plates were scanned on a LICOR Odyssey infrared imaging system. Integrated intensities in the 800 nm channel and 700 nm channel were measured to determine levels of ER and DNA respectively. Percent ER levels were determined as follows: (Integrated intensity 800 nm sample/integrated intensity 700 nm sample)/(Integrated intensity 800 nm untreated cells/integrated intensity 700 nm untreated cells)×100=% ER levels.

MCF-7 cells = experiment: Breast cancer cell viability assay (CellTiter-Glo, 5 days); type: cell-based; conditions: 5 days' compound exposure; for IC50: Homo sapiens, MCF7, 120 h
Experimental: MCF-7 cells were adjusted to a concentration of 20,000 cells per mL in RPMI containing 10% FBS and 20 mM HEPES. 16 microliters of the cell suspension (320 cells) was added to each well of a 384 well plate, and the cells were incubated overnight to allow the cells to adhere. The following day an eleven point, serial semilog dilution of each compound was added to the cells in 16 μL at a final concentration ranging from 0.3-0.000003 μM. After 5 days' compound exposure, 16 μL of CellTiter-GLo (Promega, Madison Wis.) was added to the cells the relative luminescence units (RLUs) of each well was determined CellTiter-Glo added to 32 μL of medium without cells was used to obtain a background value. The Percent viability of each sample was determined as follows: (RLU sample-RLU background/RLU untreated cells-RLU background)×100=% viability.

| Compound | Emax (ER-α in MCF-7 cells) [%] | DC50 (ER-α in MCF-7 cells) [nM] | IC50 (MCF-7 cells) [nM] | MCF7 Viability Assay Max Response (MCF-7 cells) |
| --- | --- | --- | --- | --- |
| CC/C(=C(/c1ccc(/C=C/C(=O)O)cc1)c1ccc2c[nH]c(=O)cc2c1)c1ccccc1 [Compound 90, (E)-3-(4-((E)-1-(3-Oxo-2,3-dihydroisoquinolin-6-yl)-2-phenylbut-1-en-1-yl)phenyl)acrylic acid] | ≥ 40 | > 100 | > 100 | ++ (++ = a single % value ≧ 40%) |
| CC/C(=C(/c1ccc(/C=C/C(=O)O)cc1)c1cc(F)c2[nH]ccc2c1)c1ccccc1 [Compound 92, (E)-3-(4-((E)-1-(7-Fluoro-1H-indol-5-yl)-2-phenylbut-1-en-1-yl)phenyl)acrylic acid] | ≥ 40 | ≤ 100 | ≤ 100 | ++ (++ = a single % value ≧ 40%) |
| CC/C(=C(/c1ccc(/C=C/C(=O)O)cc1)c1ccc2c(c1)CCC(=O)N2)c1ccccc1 [Compound 100, (E)-3-(4-((E)-1-(2-Oxo-1,2,3,4-tetrahydroquinolin-6-yl)-2-phenylbut-1-en-1-yl)phenyl)acrylic acid] | ≥ 40 | > 100 | > 100 | ++ (++ = a single % value ≧ 40%) |
| CC/C(=C(/c1ccc(/C=C/C(=O)O)cc1)c1cccc2[nH]c(=O)ccc12)c1ccccc1 [Compound 102, (E)-3-(4-((E)-1-(2-Oxo-1,2-dihydroquinolin-5-yl)-2-phenylbut-1-en-1-yl)phenyl)acrylic acid] | ≥ 40 | > 100 | > 100 | + (+ = a single % value < 40%) |
| CC/C(=C(/c1ccc(/C=C/C(=O)O)cc1)c1ccc2c(c1)SCC(=O)N2)c1ccccc1 [Compound 103, (E)-3-(4-((E)-1-(3-Oxo-3,4-dihydro-2H-benzo[b][1,4]thiazin-7-yl)-2-phenylbut-1-en-1-yl)phenyl)acrylic acid] | ≥ 40 | > 100 | > 100 | ++ (++ = a single % value ≧ 40%) |
| CC/C(=C(/c1ccc(/C=C/C(=O)O)cc1)c1ccc2c(c1)C(=O)NC2)c1ccccc1 [Compound 104, (E)-3-(4-((E)-1-(3-Oxoisoindolin-5-yl)-2-phenylbut-1-en-1-yl)phenyl)acrylic acid] | ≥ 40 | > 100 | > 100 | ++ (++ = a single % value ≧ 40%) |
| CC/C(=C(/c1ccc(/C=C/C(=O)O)cc1)c1ccc2c(c1)CNC2=O)c1ccccc1 [Compound 110, (E)-3-(4-((E)-1-(1-Oxoisoindolin-5-yl)-2-phenylbut-1-en-1-yl)phenyl)acrylic acid] | ≥ 40 | ≤ 100 | ≤ 100 | ++ (++ = a single % value ≧ 40%) |
| CC/C(=C(/c1ccc(/C=C/C(=O)O)cc1)c1ccc2ccccc2c1)c1ccccc1 [Compound 123, (E)-3-(4-((E)-1-(Naphthalen-2-yl)-2-phenylbut-1-en-1-yl)phenyl)acrylic acid] | ≥ 40 | ≤ 100 | > 100 | ++ (++ = a single % value ≧ 40%) |
| CC/C(=C(/c1ccc(/C=C/C(=O)O)cc1)c1ccc2nccnc2c1)c1ccccc1 [Compound 124, (E)-3-(4-((E)-2-Phenyl-1-(quinoxalin-6-yl)but-1-en-1-yl)phenyl)acrylic acid] | ≥ 40 | > 100 | > 100 | + (+ = a single % value < 40%) |
| CC/C(=C(/c1ccc(/C=C/C(=O)O)cc1)c1ccn2nccc2c1)c1ccccc1 [Compound 125, (E)-3-(4-((E)-2-Phenyl-1-(pyrazolo[1,5-a]pyridin-5-yl)but-1-en-1-yl)phenyl)acrylic acid] | ≥ 40 | > 100 | > 100 | ++ (++ = a single % value ≧ 40%) |

More lines, main results first:

| Emax (ER-α in MCF-7 cells) [%] | DC50 (ER-α in MCF-7 cells) [nM] | IC50 (MCF-7 cells) [nM] | Compound | MCF7 Viability Assay Max Response (MCF-7 cells) |
| --- | --- | --- | --- | --- |
| ≥ 40 | ≤ 100 | ≤ 100 | CC/C(=C(/c1ccc(/C=C/C(=O)O)cc1)c1ccc2[nH]ncc2c1)c1cccc2occc12 [Compound 96, (E)-3-(4-((E)-2-(Benzofuran-4-yl)-1-(1H-indazol-5-yl)but-1-en-1-yl)phenyl)acrylic acid] | ++ (++ = a single % value ≧ 40%) |
| ≥ 40 | > 100 | ≤ 100 | CC/C(=C(/c1ccc(/C=C/C(=O)O)cc1)c1ccc2c(=O)[nH]ccc2c1)c1ccccc1 [Compound 97, (E)-3-(4-((E)-1-(1-Oxo-1,2-dihydroisoquinolin-6-yl)-2-phenylbut-1-en-1-yl)phenyl)acrylic acid] | ++ (++ = a single % value ≧ 40%) |
| ≥ 40 | > 100 | > 100 | CC/C(=C(/c1ccc(/C=C/C(=O)O)cc1)c1ccc2c(c1)COC(=O)N2)c1ccccc1 [Compound 101, (E)-3-(4-((E)-1-(2-Oxo-2,4-dihydro-1H-benzo[d][1,3]oxazin-6-yl)-2-phenylbut-1-en-1-yl)phenyl)acrylic acid] | ++ (++ = a single % value ≧ 40%) |
| ≥ 40 | > 100 | > 100 | CC/C(=C(/c1ccc(/C=C/C(=O)O)cc1)c1ccc2[nH]c(=O)ccc2c1)c1ccccc1 [Compound 105, (E)-3-(4-((E)-1-(2-Oxo-1,2-dihydroquinolin-6-yl)-2-phenylbut-1-en-1-yl)phenyl)acrylic acid] | ++ (++ = a single % value ≧ 40%) |
| ≥ 40 | > 100 | > 100 | CC/C(=C(/c1ccc(/C=C/C(=O)O)cc1)c1ccc2c(c1)OCC(=O)N2)c1ccccc1 [Compound 107, (E)-3-(4-((E)-1-(3-Oxo-3,4-dihydro-2H-benzo[b][1,4]oxazin-7-yl)-2-phenylbut-1-en-1-yl)phenyl)acrylic acid] | ++ (++ = a single % value ≧ 40%) |
| ≥ 40 | > 100 | > 100 | CC/C(=C(/c1ccc(/C=C/C(=O)O)cc1)c1ccc2ncccc2c1)c1ccc(F)cc1 [Compound 118, (E)-3-(4-((E)-2-(4-Fluorophenyl)-1-(quinolin-6-yl)but-1-en-1-yl)phenyl)acrylic acid] | ++ (++ = a single % value ≧ 40%) |
| ≥ 40 | ≤ 100 | ≤ 100 | CC/C(=C(/c1ccc(/C=C/C(=O)O)cc1)c1ccc2[nH]ncc2n1)c1ccccc1 [Compound 120, (E)-3-(4-((E)-2-Phenyl-1-(1H-pyrazolo[4,3-b]pyridin-5-yl)but-1-en-1-yl)phenyl)acrylic acid] | ++ (++ = a single % value ≧ 40%) |
| ≥ 40 | > 100 | > 100 | CC/C(=C(/c1ccc(/C=C/C(=O)O)cc1)c1ccc2[nH]c(=O)[nH]c2c1)c1ccccc1 [Compound 122, (E)-3-(4-((E)-1-(2-Oxo-2,3-dihydro-1H-benzo[d]imidazol-5-yl)-2-phenylbut-1-en-1-yl)phenyl)acrylic acid] | ++ (++ = a single % value ≧ 40%) |
